Where two headings read alike, the source gives them in different places.
Tested on: NCI-60 standardized human tumor cell line panel
Experiment: cells
Type: cell-based
Details: for NCI-60 screening: Log(GI50): log10 of GI50 in M; for NCI-60 screening: Log(RedIndex): log10 reductive index vs P-CC60

COc1cc2cc(C(=O)N3CC(CCl)c4c3cc(OC(=O)N3CCN(C)C5CSSCC53)c3ccccc43)[nH]c2c(OC)c1OC (mixture of isomers) [Me-SS66T-CBI-TMI] was tested, and the “NCI-60 screening: Log(GI50)” value (786-0 (RE) cell line) was -7.79, the “NCI-60 screening: Log(RedIndex)” value (786-0 (RE) cell line) was 2.03 and the GI50 (786-0 (RE) cell line, read-out: NCI-60 screening: Raw GI50) was 16 nM. For the same compound, the GI50 (786-0, read-out: GI50) was 16 nM, the “NCI-60 screening: Log(GI50)” value (A498 (RE) cell line) was -6.9 and the “NCI-60 screening: Log(RedIndex)” value (A498 (RE) cell line) was 1.34. For the same compound, the GI50 (A498 (RE) cell line, read-out: NCI-60 screening: Raw GI50) was 130 nM, the GI50 (A498, read-out: GI50) was 130 nM and the GI50 (A549/ATCC, read-out: GI50) was 12 nM. For the same compound, the “NCI-60 screening: Log(GI50)” value (ACHN (RE) cell line) was -8.02, the “NCI-60 screening: Log(RedIndex)” value (ACHN (RE) cell line) was 1.71 and the GI50 (ACHN (RE) cell line, read-out: NCI-60 screening: Raw GI50) was 9.5 nM. For the same compound, the GI50 (ACHN, read-out: GI50) was 9.5 nM, the GI50 (BT-549, read-out: GI50) was 15 nM and the “NCI-60 screening: Log(GI50)” value (CAKI-1 (RE) cell line) was -7.56. The “NCI-60 screening: Log(RedIndex)” value (CAKI-1 (RE) cell line) was 1.74, the GI50 (CAKI-1 (RE) cell line, read-out: NCI-60 screening: Raw GI50) was 27 nM and the GI50 (CAKI-1, read-out: GI50) was 27 nM. For the same compound, the GI50 (CCRF-CEM, read-out: GI50) was 26 nM, the GI50 (COLO 205, read-out: GI50) was 49 nM and the “NCI-60 screening: Log(GI50)” value (DU-145 (PR) cell line) was -8.46. The “NCI-60 screening: Log(RedIndex)” value (DU-145 (PR) cell line) was 2.12, the GI50 (DU-145, read-out: GI50) was 3.5 nM and the GI50 (EKVX, read-out: GI50) was 18 nM. The GI50 (HCC-2998, read-out: GI50) was 15 nM, the GI50 (HCT-15, read-out: GI50) was 22 nM and the GI50 (HCT-116, read-out: GI50) was 18 nM. For the same compound, the GI50 (HL-60(TB), read-out: GI50) was 12 nM, the GI50 (HOP-62, read-out: GI50) was 12 nM and the GI50 (HOP-92, read-out: GI50) was 27 nM. For the same compound, the GI50 (HT29, read-out: GI50) was 34 nM, the “NCI-60 screening: Log(GI50)” value (IGROV1 (OV) cell line) was -7.23 and the “NCI-60 screening: Log(RedIndex)” value (IGROV1 (OV) cell line) was 1.6. It also gave a GI50 (IGROV1 (OV) cell line, read-out: NCI-60 screening: Raw GI50) of 58 nM, a GI50 (IGROV1, read-out: GI50) of 58 nM and a GI50 (K-562, read-out: GI50) of 25 nM. For the same compound, the GI50 (KM12, read-out: GI50) was 44 nM, the GI50 (LOX IMVI, read-out: GI50) was 12 nM and the GI50 (M14, read-out: GI50) was 10 nM. The GI50 (MALME-3M, read-out: GI50) was 14 nM, the GI50 (MCF7, read-out: GI50) was 5.2 nM and the GI50 (MDA-MB-435, read-out: GI50) was 27 nM. It also gave a GI50 (MDA-MB-468, read-out: GI50) of 12 nM, a GI50 (MOLT-4, read-out: GI50) of 9.9 nM and a GI50 (NCI-H23, read-out: GI50) of 9.5 nM. For the same compound, the GI50 (NCI-H226, read-out: GI50) was 95 nM, the “NCI-60 screening: Log(GI50)” value (NCI-H460 (LC) cell line) was -8.32 and the “NCI-60 screening: Log(RedIndex)” value (NCI-H460 (LC) cell line) was 2.03. The GI50 (NCI-H460, read-out: GI50) was 4.8 nM, the “NCI-60 screening: Log(GI50)” value (NCI-H522 (LC) cell line) was -7.91 and the “NCI-60 screening: Log(RedIndex)” value (NCI-H522 (LC) cell line) was 2.14. For the same compound, the GI50 (NCI-H522 (LC) cell line, read-out: NCI-60 screening: Raw GI50) was 12 nM, the GI50 (NCI-H522, read-out: GI50) was 12 nM and the “NCI-60 screening: Log(GI50)” value (OVCAR-3 (OV) cell line) was -7.28. The “NCI-60 screening: Log(RedIndex)” value (OVCAR-3 (OV) cell line) was 1.6, the GI50 (OVCAR-3, read-out: GI50) was 53 nM and the “NCI-60 screening: Log(GI50)” value (OVCAR-4 (OV) cell line) was -6.8. The “NCI-60 screening: Log(RedIndex)” value (OVCAR-4 (OV) cell line) was 1.17, the GI50 (OVCAR-4 (OV) cell line, read-out: NCI-60 screening: Raw GI50) was 160 nM and the GI50 (OVCAR-4, read-out: GI50) was 160 nM. For the same compound, the “NCI-60 screening: Log(GI50)” value (OVCAR-5 (OV) cell line) was -7.44, the “NCI-60 screening: Log(RedIndex)” value (OVCAR-5 (OV) cell line) was 2.15 and the GI50 (OVCAR-5, read-out: GI50) was 36 nM. The “NCI-60 screening: Log(GI50)” value (OVCAR-8 (OV) cell line) was -8.06, the “NCI-60 screening: Log(RedIndex)” value (OVCAR-8 (OV) cell line) was 2.28 and the GI50 (OVCAR-8, read-out: GI50) was 8.6 nM. The “NCI-60 screening: Log(GI50)” value (PC-3 (PR) cell line) was -7.61, the “NCI-60 screening: Log(RedIndex)” value (PC-3 (PR) cell line) was 2.11 and the GI50 (PC-3 (PR) cell line, read-out: NCI-60 screening: Raw GI50) was 25 nM. For the same compound, the GI50 (PC-3, read-out: GI50) was 25 nM, the GI50 (RPMI-8226, read-out: GI50) was 34 nM and the “NCI-60 screening: Log(GI50)” value (RXF 393 (RE) cell line) was -8.02. The “NCI-60 screening: Log(RedIndex)” value (RXF 393 (RE) cell line) was 2.05, the GI50 (RXF 393 (RE) cell line, read-out: NCI-60 screening: Raw GI50) was 9.5 nM and the GI50 (RXF 393, read-out: GI50) was 9.5 nM. For the same compound, the GI50 (SF-268, read-out: GI50) was 15 nM, the GI50 (SF-295, read-out: GI50) was 9.7 nM and the GI50 (SF-539, read-out: GI50) was 10 nM. For the same compound, the GI50 (SK-MEL-5, read-out: GI50) was 13 nM, the GI50 (SK-MEL-28, read-out: GI50) was 15 nM and the “NCI-60 screening: Log(GI50)” value (SK-OV-3 (OV) cell line) was -7.91. The “NCI-60 screening: Log(RedIndex)” value (SK-OV-3 (OV) cell line) was 2.24, the GI50 (SK-OV-3 (OV) cell line, read-out: NCI-60 screening: Raw GI50) was 12 nM and the GI50 (SK-OV-3, read-out: GI50) was 12 nM. For the same compound, the “NCI-60 screening: Log(GI50)” value (SN12C (RE) cell line) was -7.77, the “NCI-60 screening: Log(RedIndex)” value (SN12C (RE) cell line) was 1.85 and the GI50 (SN12C, read-out: GI50) was 17 nM. It also gave a GI50 (SNB-19, read-out: GI50) of 16 nM, a GI50 (SR, read-out: GI50) of 4 nM and a GI50 (SW-620, read-out: GI50) of 58 nM. The GI50 (T-47D, read-out: GI50) was 50 nM, the “NCI-60 screening: Log(GI50)” value (TK-10 (RE) cell line) was -6.9 and the “NCI-60 screening: Log(RedIndex)” value (TK-10 (RE) cell line) was 1.35. The GI50 (TK-10 (RE) cell line, read-out: NCI-60 screening: Raw GI50) was 130 nM.
